Results taken from patent US20060188879A1, “Crh responsive genes in cns” (Janssen Pharmaceutica N.V., priority 2002, published 2006).
“Also recorded” adds a separate entry of the source.

Assays:
Type in all cases: in vivo, mouse
[1] = system: neurotensin receptor 2 (Ntsr2); test: Quantitative RT-PCR / microarray of Ntsr2 mRNA in brain areas of treated WT and CRF-OE mice; conditions: 10 mg/kg, 2 times per day for 5 days, 16 hrs after last treatment
Method: (§1) Animal housing and treatment—Male transgenic CRF overexpressing C57BL/6J mice (CRF-OE or TG) and their wild-type littermates (WT) were maintained in an specific pathogen free facility that meets all national and European requirements for animal care. Mice were housed individually 4 weeks before the start of the experiment in a climate-controlled animal colony with a 12 h dark-light cycle (light on 7:00 EST) with free access to food and water. Prior to treatment 3 month old mice were randomized over three groups each comprising 4 wild-type and 4 transgenic animals. One group received no treatment, a second group received vehicle injection 5 days, 2 times per day (10% cyclodextran (CD), pH4) and a third group received 10 mg/kg of a CRH-R1 specific antagonist R121919 in 10% CD following the same regime. 16 hrs after last treatment animals were sacrificed for dissection of brain areas and subsequent isolation of RNA. […]
Microarray hybridization—cRNA was prepared as follows. […] Subsequently arrays were scanned with a HP-Laserscanner and data were analyzed with the Microarray Suite Software (Affymetrix). […] Quality of the experiment was assessed based on the percentages present calls (see table).
Quantitative RT-PCR—Microarray data were confirmed using real time PCR analysis. […] Quantitative PCR was performed on a ABIPrism 7700 cycler (Applied Biosystems) using a Taqman PCR kit. […]

[2] = system: gene expression profiles in brain areas of CRH overexpressing mice; test: Microarray gene expression profiles of brain areas (spectral map analysis, SAM)
Method: Animal housing and treatment—Male transgenic CRF overexpressing C57BL/6J mice (CRF-OE or TG) and their wild-type littermates (WT) were maintained in an specific pathogen free facility that meets all national and European requirements for animal care. Mice were housed individually 4 weeks before the start of the experiment in a climate-controlled animal colony with a 12 h dark-light cycle (light on 7:00 EST) with free access to food and water. Prior to treatment 3 month old mice were randomized over three groups each comprising 4 wild-type and 4 transgenic animals. […]
Microarray hybridization—cRNA was prepared as follows. […] Subsequently arrays were scanned with a HP-Laserscanner and data were analyzed with the Microarray Suite Software (Affymetrix). […] Quality of the experiment was assessed based on the percentages present calls (see table). […]
Basically this alignment sets the average intensity of one array to the average measured this normalization compensates for array to array variations in hybridization, washing and staining, ultimately allowing a reasonable comparison between arrays. After normalization, data were analyzed using weighted spectral mapping analysis (SMA) (7). […]

[3] = system: neurotensin receptor 1 (Ntsr1); test: Quantitative RT-PCR of Ntsr1 mRNA in brain areas of treated WT and CRF-OE mice; conditions: 10 mg/kg, 2 times per day for 5 days, 16 hrs after last treatment, hippocampus
Method: as §1
Quantitative RT-PCR—Microarray data were confirmed using real time PCR analysis. […] Quantitative PCR was performed on a ABIPrism 7700 cycler (Applied Biosystems) using a Taqman PCR kit. […] A linear regression line calculated from the standard curves allowed the determination of transcript levels in RNA samples from the different treatment groups at each brain area.

all NTS-sites (Nts1-3) = test: [125I]NT binding, quantitative autoradiography on brain sections of treated mice; conditions: subchronic administration
Method: FIG. 6: [^125I]NT binding (0.1 nM, 30 min, RT) to all NTS-sites determined via quantitative autoradiography on frozen glass-mounted brain tissue sections. Data are represented as the average IOD±SEM of three animals determined on at least three different Bregma sections each.
Animal housing and treatment—Male transgenic CRF overexpressing C57BL/6J mice (CRF-OE or TG) and their wild-type littermates (WT) were maintained in an specific pathogen free facility that meets all national and European requirements for animal care. Mice were housed individually 4 weeks before the start of the experiment in a climate-controlled animal colony with a 12 h dark-light cycle (light on 7:00 EST) with free access to food and water. Prior to treatment 3 month old mice were randomized over three groups each comprising 4 wild-type and 4 transgenic animals. One group received no treatment, a second group received vehicle injection 5 days, 2 times per day (10% cyclodextran (CD), pH4) and a third group received 10 mg/kg of a CRH-R1 specific antagonist R121919 in 10% CD following the same regime. 16 hrs after last treatment animals were sacrificed for dissection of brain areas and subsequent isolation of RNA.
Autoradiography—[^125 I]Neurotensin binding and film radiographs on brains of adult male transgenic C57BU6J mice and their wild-type littermates, was performed as described previously by Moyse et al. (12). […] Incubating additional sections in the presence of 1 μM native neurotensin assessed the non-specific staining. […] On each section structures were delineated interactively and pixel gray levels were measured in the outlined areas. The pixel gray levels were converted to radioactivity per mg of tissue using the co-exposed ^125I-standards and averaged over the measured area. Data were analyzed statistically by a two-way ANOVA and concomitant Bonferroni's Post-hoc test using SPSS 11.0 software.

Q: How did the “Upregulation of Ntsr2 mRNA expression in vehicle treated animals (repeated injection stress)” value [1] turn out when CCCN(CCC)c1cc(C)nc2c(-c3cnc(N(C)C)cc3C)c(C)nn12 [R121919] was run?
A: Its value is “abolished; also recorded: counteracted”.

Q: And the “Changes in gene expression profile of CRH overexpressing (Tg) versus WT animals” value ([2]; 5 day treatment, all studied brain areas, exemplified by pituitary spectral map, listed as CRH-R1 antagonist)?
A: Its value is “not affected (or only to a limited degree); also recorded: does not lead to a general ‘normalization’”.

Q: And the “Effect on expression levels at the pituitary level” value ([2]; transgenic animals, pituitary)?
A: Its value is “some effect of the compound is measured”.

Q: And the “Upregulation of Ntsr1 mRNA expression in vehicle treated animals (repeated injection stress)” value [3]?
A: The value was “abolished; also recorded: counteracted”.

Q: What about the “Downregulation of [125I]NT binding at total NT binding level” value (all NTS-sites (Nts1-3); CRF-OE mice) of the same compound?
A: Its value is “counteracted the downregulation”.

Q: What about the “[125I]NT binding capacity compared to vehicle treated animals” value (all NTS-sites (Nts1-3); stratum radiatum bordering CA1-CA2 region, both WT and CRF-OE animals, p=0.057) of the same compound?
A: The value was “upward trend”.

Q: What about the “Level of [125I]NT binding in treated CRF-OE animals versus untreated animals” value (all NTS-sites (Nts1-3); stratum radiatum, CRF-OE mice) of the same compound?
A: The value was “equaled the level measured in untreated WT-animals; also recorded: equaled that in untreated animals”.
